The values that follow are results of earlier work, collected in US20200085783A1 (priority 2013, published 2020).

One series deals with NaK pump (Rattus norvegicus, UniProt P06685).
The conditions of series [1]: read-out: in vitro IC50 growth inhibitory effects.

For `C[C@@H]1C[C@@]2(NC(=O)CS2)[C@]2(O)O[C@@H]3C[C@@]4(CO)[C@@H](CC[C@@H]5[C@@H]4CC[C@]4(C)[C@@H](C6=CC(=O)OC6)CC[C@]54O)C[C@H]3O[C@@H]2O1` [UNBS1450], the “decrease in sensitivity of rodent compared to human cells” value on NaK pump is given as 100-1000 times.

As a reminder, the IC50 is the concentration that gives 50% inhibition. As to `C[C@@H]1O[C@@H](O[C@H]2C[C@@H](O)[C@]3(CO)[C@H]4[C@H](O)C[C@]5(C)[C@@H](C6=CC(=O)OC6)CC[C@]5(O)[C@@H]4CC[C@]3(O)C2)[C@H](O)[C@H](O)[C@H]1O` [ouabain], the IC50 in series [1] is 0.01 to 0.1 µM.
